ChEMBL document CHEMBL3352287, “Cytotoxic resin glycosides from Ipomoea aquatica and their effects on intracellular Ca2+ concentrations” (J Nat Prod, 2014)
Activity calls are given as the source filed them. No cut-off for these calls is given here.

Tests used:
HepG2 [1] = assay: Cytotoxicity against human HepG2 cells after 48 hrs by MTT assay; format: functional, cell-based; settings: HepG2, 48 h
MCF7 [2] = assay: Cytotoxicity against human MCF7 cells after 48 hrs by MTT assay; format: functional, cell-based; settings: MCF7, 48 h
[3] = Cytotoxicity against human MG63 cells after 48 hrs by MTT assay; format: functional, cell-based; settings: MG-63, 48 h
U2OS [4] = assay: Cytotoxicity against human U2OS cells after 48 hrs by MTT assay; format: functional, cell-based
SMMC-7721 [5] = assay: Cytotoxicity against human SMMC7721 cells after 48 hrs by MTT assay; format: functional, cell-based; settings: SMMC-7721, 48 h
[6] = Cytotoxicity against human MCF7/ADR cells after 48 hrs by MTT assay; format: functional, cell-based; settings: NCI/ADR-RES
HepG2 [7] = assay: Increase in intracellular Ca2+ level in human HepG2 cells assessed as increase in fluorescence intensity at 30 uM after 6 hrs by Fluo-3 AM -based fluorescence assay relative to control; format: functional
MG-63 = assay: Cytotoxicity against human MG63 cells at 10 uM after 48 hrs by MTT assay; format: functional, cell-based
U2OS [8] = assay: Cytotoxicity against human U2OS cells at 10 uM after 48 hrs by MTT assay; format: functional, cell-based
HepG2 [9] = assay: Cytotoxicity against human HepG2 cells at 10 uM after 48 hrs by MTT assay; format: functional, cell-based
NCI/ADR-RES = assay: Cytotoxicity against human MCF7/ADR cells at 10 uM after 48 hrs by MTT assay; format: functional, cell-based
SMMC-7721 [10] = assay: Cytotoxicity against human SMMC7721 cells at 10 uM after 48 hrs by MTT assay; format: functional, cell-based
MCF7 [11] = assay: Cytotoxicity against human MCF7 cells at 10 uM after 48 hrs by MTT assay; format: functional, cell-based
HepG2 [12] = assay: Cell cycle arrest in human HepG2 cells assessed as increase in subG1 phase cells at 8 uM after 48 hrs using propidium iodide by flow cytometry; format: functional, cell-based
HepG2 [13] = assay: Cell cycle arrest in human HepG2 cells assessed as increase in G0/G1 phase cells after 48 hrs using propidium iodide by flow cytometry; format: functional, cell-based

Row | SMILES | IC50 (HepG2 [1]) | IC50 (MCF7 [2]) | IC50 [3] | IC50 (U2OS [4]) | IC50 (SMMC-7721 [5]) | IC50 [6] | IC50 ([3]; read-out: IC50) | Activity (HepG2 [7]) | Activity (MG-63) | Activity (U2OS [8]) | Activity (HepG2 [9]) | Activity (NCI/ADR-RES) | Activity (SMMC-7721 [10]) | Activity (MCF7 [11]) | Activity (HepG2 [12]) | Activity (HepG2 [13])
1 | COc1cccc2c1C(=O)c1c(O)c3c(c(O)c1C2=O)C[C@@](O)(C(=O)CO)C[C@@H]3O[C@H]1C[C@H](N)[C@H](O)[C@H](C)O1 [DOXORUBICIN] | 0.36 µM | 0.46 µM | 0.74 µM | 0.65 µM | 1.1 µM | – | – | – | – | – | – | – | – | – | – | –
2 | CCCCCCCC(=O)O[C@@H]1[C@@H](O)[C@@H](O)[C@H](O[C@@H]2[C@@H](O[C@@H]3O[C@@H](C)[C@H](O)[C@@H](O)[C@H]3O)[C@@H](OC(=O)[C@@H](C)CC)[C@H](O[C@@H]3[C@H]4OC(=O)CCCCCCCCC[C@H](CCCCC)O[C@@H]5O[C@H](C)[C@H](O)[C@H](O)[C@H]5O[C@H](O[C@H]3C)[C@@H]4O)O[C@H]2C)O[C@H]1C | 3.7 µM | 4.1 µM | – | 9.4 µM | 9.5 µM | > 10 µM | 7.7 µM | Active | – | – | – | – | – | – | – | –
3 | CCCCCCCC(=O)O[C@@H]1[C@@H](O)[C@H](C)O[C@@H](O[C@@H]2[C@@H](O[C@@H]3O[C@H](CO)[C@@H](O)[C@H](O)[C@H]3O)[C@@H](OC(=O)CCCCCCC)[C@H](O[C@@H]3[C@H]4OC(=O)CCCCCCCCC[C@H](CCCCC)O[C@@H]5O[C@H](C)[C@H](O)[C@H](O)[C@H]5O[C@H](O[C@H]3C)[C@@H]4O)O[C@H]2C)[C@@H]1O | – | – | – | – | – | – | – | – | inactive | inactive | inactive | inactive | inactive | inactive | – | –
4 | CCCCCCCC(=O)O[C@@H]1[C@@H](O)[C@@H](O)[C@H](O[C@@H]2[C@@H](O[C@@H]3O[C@@H](C)[C@H](O)[C@@H](O)[C@H]3O)[C@@H](OC(=O)CCCCCCC)[C@H](O[C@@H]3[C@H]4OC(=O)CCCCCCCCC[C@H](CCCCC)O[C@@H]5O[C@H](C)[C@H](O)[C@H](O)[C@H]5O[C@H](O[C@H]3C)[C@@H]4O)O[C@H]2C)O[C@H]1C | 5.2 µM | 5 µM | – | 9.6 µM | 9 µM | > 10 µM | 3.7 µM | Active | – | – | – | – | – | – | – | –
5 | CCCCCCCC(=O)O[C@@H]1[C@@H](O)[C@@H](O)[C@H](O[C@@H]2[C@@H](O[C@@H]3O[C@H](CO)[C@@H](O)[C@H](O)[C@H]3O)[C@@H](OC(=O)CCCCCCC)[C@H](O[C@@H]3[C@H]4OC(=O)CCCCCCCCC[C@H](CCCCC)O[C@@H]5O[C@H](C)[C@H](O)[C@H](O)[C@H]5O[C@H](O[C@H]3C)[C@@H]4O)O[C@H]2C)O[C@H]1C | 8.5 µM | 7.4 µM | – | > 10 µM | > 10 µM | > 10 µM | 5.4 µM | >200% | – | – | – | – | – | – | – | –
6 | CCCCCCCC(=O)O[C@@H]1[C@@H](O)[C@@H](O)[C@H](O[C@@H]2[C@@H](O[C@@H]3O[C@@H](C)[C@H](O)[C@@H](O)[C@H]3O)[C@@H](OC(=O)CCCCC)[C@H](O[C@@H]3[C@H]4OC(=O)CCCCCCCCC[C@H](CCCCC)O[C@@H]5O[C@H](C)[C@H](O)[C@H](O)[C@H]5O[C@H](O[C@H]3C)[C@@H]4O)O[C@H]2C)O[C@H]1C | 2.4 µM | 4.2 µM | – | 4.5 µM | 6.3 µM | > 10 µM | 5.3 µM | Active | – | – | – | – | – | – | Active | Dose-dependent effect
7 | CCCCCCCCCC(=O)O[C@H]1[C@H](O[C@@H]2[C@H]3OC(=O)CCCCCCCCC[C@H](CCCCC)O[C@@H]4O[C@H](C)[C@H](O)[C@H](O)[C@H]4O[C@H](O[C@H]2C)[C@@H]3O)O[C@@H](C)[C@H](O[C@@H]2O[C@@H](C)[C@H](OC(=O)CCCCCCC)[C@@H](O)[C@H]2O)[C@H]1O[C@@H]1O[C@@H](C)[C@H](O)[C@@H](O)[C@H]1O | 4.9 µM | 9.8 µM | – | > 10 µM | > 10 µM | > 10 µM | 6 µM | Active | – | – | – | – | – | – | – | –
